Consider 22 compounds from patent US9771360B2, “Cyano-substituted imidazo[1,2-A]pyridinecarboxamides and their use” (Bayer Pharma Aktiengesellschaft, priority 2014, dated 2017).

The target in the assay is T1, recombinant guanylate cyclase reporter cell line (Rattus norvegicus, UniProt P19686+P20595).
T1 construct: expressed in transfected cells
T1 sequence (P20595 1-619): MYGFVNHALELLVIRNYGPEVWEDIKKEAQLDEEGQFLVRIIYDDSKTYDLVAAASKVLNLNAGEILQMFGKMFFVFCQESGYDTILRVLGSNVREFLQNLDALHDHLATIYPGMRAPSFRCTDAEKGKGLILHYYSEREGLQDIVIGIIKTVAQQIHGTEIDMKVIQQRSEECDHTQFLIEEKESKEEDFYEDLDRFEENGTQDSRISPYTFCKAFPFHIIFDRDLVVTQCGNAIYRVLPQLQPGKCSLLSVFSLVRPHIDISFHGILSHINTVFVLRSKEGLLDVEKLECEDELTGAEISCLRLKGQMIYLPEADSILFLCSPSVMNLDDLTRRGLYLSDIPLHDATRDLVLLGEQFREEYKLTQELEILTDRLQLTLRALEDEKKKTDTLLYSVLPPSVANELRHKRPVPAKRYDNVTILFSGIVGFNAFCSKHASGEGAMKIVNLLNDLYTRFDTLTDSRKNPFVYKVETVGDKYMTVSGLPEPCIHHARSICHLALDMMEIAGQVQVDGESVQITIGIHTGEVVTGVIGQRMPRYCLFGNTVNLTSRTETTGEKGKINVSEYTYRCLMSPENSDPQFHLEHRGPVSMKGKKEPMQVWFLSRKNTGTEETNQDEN
T1 sequence (P19686 1-690): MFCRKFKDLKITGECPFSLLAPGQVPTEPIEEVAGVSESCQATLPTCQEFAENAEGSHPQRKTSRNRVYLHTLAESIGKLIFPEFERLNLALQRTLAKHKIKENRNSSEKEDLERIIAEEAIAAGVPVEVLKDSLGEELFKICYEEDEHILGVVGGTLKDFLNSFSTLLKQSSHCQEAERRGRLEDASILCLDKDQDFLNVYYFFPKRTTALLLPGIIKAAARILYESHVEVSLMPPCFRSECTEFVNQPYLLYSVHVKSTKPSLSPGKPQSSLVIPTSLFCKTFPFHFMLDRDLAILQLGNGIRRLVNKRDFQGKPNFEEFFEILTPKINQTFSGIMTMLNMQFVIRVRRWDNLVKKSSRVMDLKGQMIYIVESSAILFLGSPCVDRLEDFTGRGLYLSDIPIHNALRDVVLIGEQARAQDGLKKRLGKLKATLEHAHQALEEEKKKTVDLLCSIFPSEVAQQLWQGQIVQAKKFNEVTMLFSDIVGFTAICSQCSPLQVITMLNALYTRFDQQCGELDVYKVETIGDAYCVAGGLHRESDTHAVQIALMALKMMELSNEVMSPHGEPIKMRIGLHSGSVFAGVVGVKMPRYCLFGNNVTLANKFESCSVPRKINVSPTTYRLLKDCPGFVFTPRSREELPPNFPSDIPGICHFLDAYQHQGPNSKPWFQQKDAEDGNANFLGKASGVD
As to the kind of experiment: Effect on a recombinant guanylate cyclase reporter cell line (B-2). The assay is classed as cell-based. Conditions: MEC = minimum effective concentration; in some cases mean values from individual determinations. The method, then:
B-2. Effect on a Recombinant Guanylate Cyclase Reporter Cell Line
The cellular activity of the compounds according to the invention is determined using a recombinant guanylate cyclase reporter cell line, as described in F. Wunder et al., Anal. Biochem. 339, 104-112 (2005).
Representative MEC values (MEC=minimum effective concentration) for the compounds of the invention are shown in the table below (in some cases as mean values from individual determinations): […]
In the case of `Cc1cc(OCc2c(F)cccc2F)c2nc(C)c(C(=O)NC(C)C#N)n2c1` (racemic) [Example 1, rac-N-(1-Cyanoethyl)-8-[(2,6-difluorobenzyl)oxy]-2,6-dimethylimidazo[1,2-a]pyridine-3-carboxamide], the MEC was found to be 0.55 µM.
Then `Cc1cc(OCc2c(F)cccc2F)c2nc(C)c(C(=O)NC(C)(C#N)C3CC3)n2c1` (racemic) [Example 6, rac-N-(1-cyano-1-cyclopropylethyl)-8-[(2,6-difluorobenzyl)oxy]-2,6-dimethylimidazo[1,2-a]pyridine-3-carboxamide], with 0.1 µM; and `COCC(C)(C#N)NC(=O)c1c(C)nc2c(OCc3c(F)cccc3F)cc(C)cn12` (racemic) [Example 7, rac-N-(2-cyano-1-methoxypropan-2-yl)-8-[(2,6-difluorobenzyl)oxy]-2,6-dimethylimidazo[1,2-a]pyridine-3-carboxamide], with 0.3 µM.
`Cc1cc(OCc2c(F)cccc2F)c2nc(C)c(C(=O)NC(C#N)c3ccc(Cl)cc3)n2c1` (racemic) [Example 8, rac-N-[(4-chlorophenyl)(cyano)methyl]-8-[(2,6-difluorobenzyl)oxy]-2,6-dimethylimidazo[1,2-a]pyridine-3-carboxamide]: the MEC is 0.1 µM.
With `CCC(CC#N)NC(=O)c1c(C)nc2c(OCc3c(F)cccc3F)cc(C)cn12` (racemic) [Example 13, rac-N-(1-cyanobutan-2-yl)-8-[(2,6-difluorobenzyl)oxy]-2,6-dimethylimidazo[1,2-a]pyridine-3-carboxamide], the MEC is 1 µM.
The value for `Cc1cc(OCc2c(F)ccc(F)c2F)c2nc(C)c(C(=O)NC(C#N)c3ccc(Cl)cc3)n2c1` (racemic) [Example 17, rac-N-[(4-Chlorophenyl)(cyano)methyl]-2,6-dimethyl-8-[(2,3,6-trifluorobenzyl)oxy]imidazo[1,2-a]pyridine-3-carboxamide] was 0.3 µM; that for `N#CC(NC(=O)c1cnc2c(OCc3c(F)cccc3F)cccn12)c1ccc(Cl)cc1` (racemic) [Example 18, rac-N-[(4-chlorophenyl)(cyano)methyl]-8-[(2,6-difluorobenzyl)oxy]imidazo[1,2-a]pyridine-3-carboxamide] was 10 µM; that for `Cc1cc(OCc2ncccc2F)c2nc(C)c(C(=O)NC(C#N)c3ccc(Cl)cc3)n2c1` (racemic) [Example 19, rac-N-[(4-chlorophenyl)(cyano)methyl]-8-[(3-fluoropyridin-2-yl)methoxy]-2,6-dimethylimidazo[1,2-a]pyridine-3-carboxamide] was 1 µM.
Then `Cc1nc2c(OCC3CCCCC3)cccn2c1C(=O)NC(C#N)c1ccc(Cl)cc1` (racemic) [Example 20, rac-N-[(4-chlorophenyl)(cyano)methyl]-8-(cyclohexylmethoxy)-2-methylimidazo[1,2-a]pyridine-3-carboxamide], with 1 µM; and `Cc1nc2c(OCc3ncccc3F)cccn2c1C(=O)NC(C#N)c1ccc(Cl)cc1` (racemic) [Example 21, rac-N-[(4-chlorophenyl)(cyano)methyl]-8-[(3-fluoropyridin-2-yl)methoxy]-2-methylimidazo[1,2-a]pyridine-3-carboxamide], with 10 µM.
The value for `COc1ccc(F)c(COc2cc(C)cn3c(C(=O)NC(C#N)c4ccc(Cl)cc4)c(C)nc23)c1F` (racemic) [Example 22, rac-N-[(4-chlorophenyl)(cyano)methyl]-8-[(2,6-difluoro-3-methoxybenzyl)oxy]-2,6-dimethylimidazo[1,2-a]pyridine-3-carboxamide] was 3 µM; that for `Cc1cc(OCCC(C(F)(F)F)C(F)(F)F)c2nc(C)c(C(=O)NC(C#N)c3ccc(Cl)cc3)n2c1` (racemic) [Example 23, rac-N-[(4-chlorophenyl)(cyano)methyl]-2,6-dimethyl-8-[4,4,4-trifluoro-3-(trifluoromethyl)butoxy]imidazo[1,2-a]pyridine-3-carboxamide] was 3 µM.
For the compound `Cc1cc(OCCC(C)C)c2nc(C)c(C(=O)NC(C#N)c3ccc(Cl)cc3)n2c1` (racemic) [Example 25, rac-N-[(4-chlorophenyl)(cyano)methyl]-2,6-dimethyl-8-(3-methylbutoxy)imidazo[1,2-a]pyridine-3-carboxamide], the MEC was 3 µM.
Then `CCc1nc2c(OCc3c(F)cccc3F)cc(C)cn2c1C(=O)NC(C#N)c1ccc(Cl)cc1` (racemic) [Example 27, rac-N-[(4-chlorophenyl)(cyano)methyl]-8-[(2,6-difluorobenzyl)oxy]-2-ethyl-6-methylimidazo[1,2-a]pyridine-3-carboxamide], with 0.3 µM; and `COc1cc(OCc2c(F)cccc2F)c2nc(C)c(C(=O)NC(C#N)c3ccc(Cl)cc3)n2c1` (racemic) [Example 28, rac-N-[(4-chlorophenyl)(cyano)methyl]-8-[(2,6-difluorobenzyl)oxy]-6-methoxy-2-methylimidazo[1,2-a]pyridine-3-carboxamide], with 1 µM.
As to `Cc1nc2c(OCc3c(F)cccc3F)cc(Cl)cn2c1C(=O)NC(C#N)c1ccc(Cl)cc1` (racemic) [Example 29, rac-6-chloro-N-[(4-chlorophenyl)(cyano)methyl]-8-[(2,6-difluorobenzyl)oxy]-2-methylimidazo[1,2-a]pyridine-3-carboxamide], the MEC was determined as 1 µM.
Then `Cc1cc(OCc2c(F)cncc2F)c2nc(C)c(C(=O)NC(C#N)c3ccc(Cl)cc3)n2c1` (racemic) [Example 30, rac-N-[(4-chlorophenyl)(cyano)methyl]-8-[(3,5-difluoropyridin-4-yl)methoxy]-2,6-dimethylimidazo[1,2-a]pyridine-3-carboxamide], with 1 µM; and `Cc1cc(OCC2CC(F)(F)C2)c2nc(C)c(C(=O)NC(C#N)c3ccc(Cl)cc3)n2c1` (racemic) [Example 31, rac-N-[(4-chlorophenyl)(cyano)methyl]-8-[(3,3-difluorocyclobutyl)methoxy]-2,6-dimethylimidazo[1,2-a]pyridine-3-carboxamide], with 10 µM; and `Cc1cc(OCc2c(F)cccc2F)c2nc(C)c(C(=O)NC(C#N)C(N)=O)n2c1` (racemic) [Example 34, rac-N-(2-amino-1-cyan-2-oxoethyl)-8-[(2,6-difluorobenzyl)oxy]-2,6-dimethylimidazo[1,2-a]pyridine-3-carboxamide], with 1 µM.
Turning to `Cc1cc(OCc2c(F)cccc2F)c2nc(C)c(C(=O)NC(CN)CC#N)n2c1` (racemic) [Example 39, rac-N-(1-Amino-3-cyanopropan-2-yl)-8-[(2,6-difluorobenzyl)oxy]-2,6-dimethylimidazo[1,2-a]pyridine-3-carboxamide], the MEC was determined as 1 µM.
The value for `Cc1cc(OCc2c(F)cccc2F)c2nc(C)c(C(=O)NCC(N)CCC#N)n2c1` (racemic) [Example 44, rac-N-(2-Amino-4-cyanobutyl)-8-[(2,6-difluorobenzyl)oxy]-2,6-dimethylimidazo[1,2-a]pyridine-3-carboxamide] was 1 µM; that for `Cc1cc(OCc2c(F)cccc2F)c2nc(C)c(C(=O)NCC(N)CCCC#N)n2c1` (racemic) [Example 45, rac-N-(2-Amino-5-cyanopentyl)-8-[(2,6-difluorobenzyl)oxy]-2,6-dimethylimidazo[1,2-a]pyridine-3-carboxamide] was 2 µM.
